In patent US20090215791A1, “NEW THERAPEUTIC USE OF 4-(2-FLUOROPHENYL)-6-METHYL-2-(1-PIPERAZINYL)THIENO[2,3-D]PYRIMIDINE” (Dynogen Pharmaceuticals, Inc., priority 2001, published 2009):

Columns and labels:
[1] = test system: inflammatory pain (inflamed paw); experiment: Inflammatory pain, modified Randall Selitto method, paw pressure analgesiometer (Study 1); type: in vivo, rats; conditions: for Group mean (±sd) pain threshold (g) of inflamed paw at 1 hour pre-dose / Group mean (±sd) pain threshold (g) of inflamed paw at 2 hour pre-dose: baseline before dosing, 13 per group, groups later given MCI-225 30 mg/kg or indomethacin 1 mg/kg
Description: Three groups of rats received vehicle, indomethacin or MCI-225. There were 13 rats in each group. Inflammatory pain was induced following a modified Randall Selitto method and the pain threshold of the inflamed paw was measured using a paw pressure analgesiometer. The threshold for paw withdrawal was measured in grams at 1 and 3 hours post dose.

[2] = test system: reflex depressor response to colorectal distension; experiment: Reflex depressor response to colorectal distension in anesthetised rats (Study 2); type: in vivo, male Sprague-Dawley rats; conditions: for Fall in arterial blood pressure (mean absolute decrease in mean arterial pressure, SEM in brackets) evoked by balloon distension: after MCI-225 3 mg/kg i.v.
Description: In Study 2, using intact animals, the ability of a drug to inhibit the reflex depressor response to colorectal distension can be assessed. In this model, an inhibition of the reflex indicates modulation of visceral nociceptive neurotransmission and, therefore, the use of the drug in functional bowel disease (e.g IBS); see Kozlowski et al, 2000, Gut 46, 474-480. Allodynia and visceral pain are important components of functional bowel disease.
Experiments were performed on male Sprague-Dawley rats (250-300 g). Anesthesia was induced with isoflurane (2.5% in oxygen) and maintained with alpha chlorolose (80 mg/kg i.v.). The left carotid artery was cannulated for the measurement of blood pressure and heart rate and the left jugular vein cannulated for drug administration. A tracheal cannula was implanted for artificial respiration if required. A 10 mm long latex balloon was inserted intrarectally so that the tip of the balloon was 20 mm from the anal verge (Kozlowski et al, supra). The balloon was connected via a double lumen cannula to a pressure transducer and also to a saline-filled syringe for inflation/deflation of the balloon. Throughout the experiment, body temperature was kept constant at 36-38 C using a homeothermic blanket.
Once stable baseline parameters were obtained (approximately after 20 minutes), the balloon was rapidly inflated with increasing volumes of saline (0.5-2.5 ml) for 30 seconds at 5 minute intervals, and the resultant change in blood pressure recorded. Three distinct response curves were constructed, with a 10 minute stabilisation period between each curve. In one group of animals, 10 minutes prior to the commencement of the final distension response curve, a single bolus of MCI-225 (3 mg/kg) was administered intravenously; in a second group of animals, a single bolus dose of vehicle was administered. The effect of MCI-225 and vehicle was determined by analysing the changes in colorectal distension that evoked depressor response.

Row | Compound | Group mean (±sd) pain threshold (g) of inflamed paw at 1 hour pre-dose ([1]; rats) [g] | Group mean (±sd) pain threshold (g) of inflamed paw at 2 hour pre-dose ([1]; rats) [g] | Fall in arterial blood pressure (mean absolute decrease in mean arterial pressure, SEM in brackets) evoked by balloon distension ([2]; 0.5 ml balloon volume, n=6, before drug 2.7 (1.9)) | Fall in arterial blood pressure (mean absolute decrease in mean arterial pressure, SEM in brackets) evoked by balloon distension ([2]; 1.0 ml balloon volume, n=6, before drug 12.4 (5.9)) | Fall in arterial blood pressure (mean absolute decrease in mean arterial pressure, SEM in brackets) evoked by balloon distension ([2]; 1.5 ml balloon volume, n=6, before drug 24.0 (8.9)) | Fall in arterial blood pressure (mean absolute decrease in mean arterial pressure, SEM in brackets) evoked by balloon distension ([2]; 2.0 ml balloon volume, n=6, before drug 36.3 (4.8), p<0.01 paired t test) | Fall in arterial blood pressure (mean absolute decrease in mean arterial pressure, SEM in brackets) evoked by balloon distension ([2]; 2.5 ml balloon volume, n=5, before drug 43.4 (6.0), p<0.05 paired t test) | Effect on distension-induced falls in blood pressure (in words) ([2]; MCI-225 3 mg/kg i.v., significant at 2.0 and 2.5 ml balloon volumes) | Group mean changes (±sd) in pain threshold (g) from pre-dose reading at 1 hour post-dose ([1]; 1 hour post-dose, MCI-225 30 mg/kg (oral), indomethacin 1 mg/kg, rats, * p<0.05, ** p<0.01 vs vehicle, monohydrate hydrochloride) [g] | Group mean changes (±sd) in pain threshold (g) from pre-dose reading at 3 hour post-dose ([1]; 3 hour post-dose, MCI-225 30 mg/kg (oral), indomethacin 1 mg/kg, rats, * p<0.05, ** p<0.01 vs vehicle, monohydrate hydrochloride) [g] | Analgesic activity in in vivo model of inflammatory pain (in words) ([1]; MCI-225 oral dose of 30 mg/kg versus indomethacin 1 mg/kg)
1 | COc1ccc2c(c1)c(CC(=O)O)c(C)n2C(=O)c1ccc(Cl)cc1 [Indomethacin, indomethacin, reference compound] | 166.2 ± 68.32 | 144.2 ± 41.32 | – | – | – | – | – | – | – | – | –
2 | Cc1cc2c(-c3ccccc3F)nc(N3CCNCC3)nc2s1.Cl.O [MCI-225, 4-(2-Fluorophenyl)-6-methyl-2-(1-piperazinyl)thieno[2,3-D]pyrimidine monohydrate hydrochloride] | 147.7 ± 65.91 | 138.5 ± 34.72 | 2.2 (1.65) mmHg | 6.3 (2.6) mmHg | 10.6 (3.9) mmHg | 15.3 (5.4) mmHg | 24.6 (7.3) mmHg | inhibited the distension-induced falls in blood pressure | 32.3 | 66.9 | comparable to that of indomethacin
